In ChEMBL document CHEMBL1201862, “PubChem BioAssay data set” (2004):
“And” between values parts separate entries of the source, which are not always exact repeats. Identical values can stand only once.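 Each compound was tested at five concentrations against cells in 96-well plates for 48 hours. GI50: concentration for 50% inhibition of growth.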 The source made the active and inactive calls. No stated cut-off is given here; in the data, active = GI50 up to about 1.1 µM and inactive = higher.

Legend:
Test in all cases: NCI anticancer screen, dose series, 48 h
SR = tested on: SR
MOLT-4 = tested on: MOLT-4
OVCAR-3 = tested on: OVCAR-3
MCF7 = tested on: MCF7
Malme-3M = tested on: Malme-3M
HCT-116 = tested on: HCT-116
LOX IMVI = tested on: LOX IMVI
M14 = tested on: M14
OVCAR-8 = tested on: OVCAR-8
K562 = tested on: K562
COLO 205 = tested on: COLO 205
SNB-75 = tested on: SNB-75
NCI-H460 = tested on: NCI-H460
A498 = tested on: A498
SK-MEL-28 = tested on: SK-MEL-28
SK-OV-3 = tested on: SK-OV-3
NCI-H23 = tested on: NCI-H23
DU-145 = tested on: DU-145
CCRF-CEM = tested on: CCRF-CEM

Measured: GI50

c1ccc(CCc2cccnc2)nc1
inactive: SR > 100 µM | MOLT-4 > 100 µM | OVCAR-3 > 100 µM | MCF7 > 100 µM | Malme-3M > 100 µM | HCT-116 > 100 µM | LOX IMVI > 100 µM | M14 > 100 µM | OVCAR-8 > 100 µM | K562 52.4 µM | COLO 205 > 100 µM | SNB-75 > 100 µM | NCI-H460 > 100 µM | A498 > 100 µM | SK-MEL-28 > 100 µM | SK-OV-3 > 100 µM | NCI-H23 > 100 µM

CC1CC(N)=C(C#N)C1(C#N)C#N (stereo unspecified)
inactive: MOLT-4 > 100 µM | MCF7 > 100 µM | Malme-3M > 100 µM | DU-145 > 100 µM | HCT-116 > 100 µM | LOX IMVI > 100 µM | M14 > 100 µM | OVCAR-8 > 100 µM | K562 > 100 µM | COLO 205 > 100 µM | SNB-75 74.3 µM | A498 > 100 µM | SK-OV-3 > 100 µM | NCI-H23 > 100 µM

COc1ccc(-c2cc(-c3cc(F)c(Cl)cc3Cl)[nH]n2)cc1OC
inactive: SR 11.1 µM | MOLT-4 14.5 µM | OVCAR-3 15.2 µM | Malme-3M 30.4 µM | DU-145 33.1 µM | HCT-116 25.7 µM | LOX IMVI 18.4 µM | M14 75 µM | OVCAR-8 34.4 µM | K562 46 µM | COLO 205 19.2 µM | SNB-75 23.3 µM | NCI-H460 32.1 µM | CCRF-CEM 11.6 µM | SK-MEL-28 48.6 µM | SK-OV-3 31.9 µM | NCI-H23 30 µM

O=C1C(Cl)C2(CC(/C=C/c3ccccc3)=NN2c2cccc(S(=O)(=O)O)c2)N1c1nc2ccccc2s1 (stereo unspecified)
inactive: SR 13.4 µM | MOLT-4 20.7 µM | MCF7 16.7 µM | Malme-3M 17.3 µM | HCT-116 21.1 µM | LOX IMVI 2.79 µM | M14 17.2 µM | OVCAR-8 11.9 µM | K562 21.4 µM | COLO 205 19.2 µM | SNB-75 15.3 µM | NCI-H460 22.8 µM | A498 19.3 µM | CCRF-CEM 12.4 µM | SK-MEL-28 44.8 µM | NCI-H23 13.2 µM

O=[N+]([O-])c1ccc(OCc2nnc(CCCCCCCCc3nnc(COc4ccc([N+](=O)[O-])cc4)o3)o2)cc1
inactive: MOLT-4 > 100 µM | OVCAR-3 > 100 µM | MCF7 > 100 µM | Malme-3M > 100 µM | DU-145 > 100 µM | HCT-116 77.6 µM | M14 > 100 µM | K562 > 100 µM | COLO 205 > 100 µM | SNB-75 > 100 µM | NCI-H460 > 100 µM | A498 > 100 µM | SK-MEL-28 > 100 µM | SK-OV-3 40.6 µM | NCI-H23 81.5 µM

COC(=O)C1=C(CCCCO[Si](C)(C)C(C)(C)C)NC(=O)N2[C@H](CCOCc3ccccc3)CC[C@@H]12
inactive: MOLT-4 > 100 µM | OVCAR-3 29.4 µM | MCF7 34.4 µM | Malme-3M 40 µM | DU-145 75.2 µM | HCT-116 24 µM | M14 58.3 µM | K562 87.9 µM | COLO 205 27.9 µM | SNB-75 43.7 µM | NCI-H460 38 µM | A498 > 100 µM | SK-MEL-28 > 100 µM | SK-OV-3 > 100 µM | NCI-H23 17.6 µM

CCCCCCCCCc1nn2c(Cc3ccccc3)nnc2s1
inactive: MOLT-4 17.3 µM | OVCAR-3 17.2 µM | MCF7 41.1 µM | DU-145 22.4 µM | HCT-116 18 µM | M14 20.8 µM | OVCAR-8 15.3 µM | K562 32.5 µM | COLO 205 17.5 µM | SNB-75 26.4 µM | NCI-H460 18.5 µM | A498 18.2 µM | SK-MEL-28 17.7 µM | SK-OV-3 25.5 µM | NCI-H23 19.2 µM

CC1OC(OC2C(OC(=O)[C@]34CCC(C)(C)C[C@H]3C3=CC[C@@H]5[C@@]6(C)CC[C@H](OC7OC(CO)C(O)C(O)C7OC7OC(CO)C(O)C(O)C7O)C(C)(C)[C@@H]6CC[C@@]5(C)[C@]3(C)CC4)OCC(O)C2O)C(O)C(O)C1OC1OCC(O)C(OC2OCC(O)C(O)C2O)C1O (stereo partly specified)
inactive: SR 2.19 µM and 3.06 µM | OVCAR-3 10.7 µM and 6.5 µM | Malme-3M 2.49 µM and 2.52 µM | DU-145 8.11 µM and 7.05 µM | HCT-116 5.04 µM and 3.85 µM | LOX IMVI 9.98 µM and 11.1 µM | M14 1.97 µM and 1.79 µM | OVCAR-8 7.74 µM and 11.6 µM | K562 4.6 µM and 3.77 µM | COLO 205 1.78 µM and 2.43 µM | SNB-75 7.93 µM and 5.86 µM | NCI-H460 15.7 µM and 17.7 µM | A498 2.17 µM and 2.02 µM | CCRF-CEM 11.3 µM and 13.2 µM | SK-MEL-28 2.09 µM and 2.18 µM | SK-OV-3 12.6 µM and 13.1 µM | NCI-H23 2.42 µM and 3.1 µM
